Columns and labels:
Type in all cases: cell-based
hTLR8 = molecular target: T1, hTLR8 (Homo sapiens, UniProt Q9NR97); test: HEK-293 hTLR8 NF-κB/AP-1 SEAP reporter assay
T1 construct: host or cells: HEK-293 reporter cells
T1 sequence (Q9NR97 27-1041): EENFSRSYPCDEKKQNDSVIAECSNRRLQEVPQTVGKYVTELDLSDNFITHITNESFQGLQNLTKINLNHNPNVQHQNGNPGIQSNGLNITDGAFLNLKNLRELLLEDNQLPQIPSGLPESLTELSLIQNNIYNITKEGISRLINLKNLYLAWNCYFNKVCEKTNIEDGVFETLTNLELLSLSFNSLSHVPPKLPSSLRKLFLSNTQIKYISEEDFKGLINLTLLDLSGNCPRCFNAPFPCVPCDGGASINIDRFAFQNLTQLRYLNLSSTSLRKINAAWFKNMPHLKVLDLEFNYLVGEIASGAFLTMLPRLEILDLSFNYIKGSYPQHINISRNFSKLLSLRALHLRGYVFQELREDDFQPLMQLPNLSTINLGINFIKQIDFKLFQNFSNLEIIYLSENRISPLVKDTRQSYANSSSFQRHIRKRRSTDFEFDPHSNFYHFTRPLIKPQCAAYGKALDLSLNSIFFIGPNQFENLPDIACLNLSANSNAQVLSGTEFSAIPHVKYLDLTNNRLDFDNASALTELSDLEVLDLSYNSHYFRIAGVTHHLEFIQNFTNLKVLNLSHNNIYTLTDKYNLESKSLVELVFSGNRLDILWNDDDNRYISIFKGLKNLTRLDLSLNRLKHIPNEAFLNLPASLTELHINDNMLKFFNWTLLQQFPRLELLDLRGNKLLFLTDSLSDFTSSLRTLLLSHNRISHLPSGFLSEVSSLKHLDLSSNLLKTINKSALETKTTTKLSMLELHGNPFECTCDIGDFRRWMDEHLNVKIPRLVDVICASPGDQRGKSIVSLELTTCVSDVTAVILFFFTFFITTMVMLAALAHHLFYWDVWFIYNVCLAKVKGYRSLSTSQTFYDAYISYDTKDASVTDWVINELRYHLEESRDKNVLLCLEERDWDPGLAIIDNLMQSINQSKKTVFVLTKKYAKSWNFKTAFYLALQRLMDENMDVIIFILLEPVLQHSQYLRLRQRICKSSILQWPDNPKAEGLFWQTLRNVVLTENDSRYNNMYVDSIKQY
Experimental: (§1) FIGS. 3A-3E. PVP-179 is a TLR8 agonist. FIG. 3A: PVP-179 was sent to InvivoGen for PRR ligand screening service. Various cells lines were utilized to screen for PVP-179-induced ([…]) activation of TLRs, NOD1/2, RIG-I/MDA-5, Dectin-1 or Mincle receptor. The heat-map depicts percentage activity compared to the positive control for each receptor. FIG. 3B: PVP-179 induced activity (% activity compared to the positive control: CL075 at 1 μg/mL) in HEK-293 cells specifically expressing hTLR8. In brief, these cells have an NF-κB/AP-1-inducible secreted embryonic alkaline phosphatase (SEAP) reporter gene which allows monitoring of signaling via TLR8. After incubation for 16-24 hours, supernatant harvested from the cells is mixed with media containing SEAP-substrate and the optical density (OD) is measured at 650 nm using a spectrophotometer. FIG. 3C: As in FIG. 3B, HEK cells specifically expressing hTLR2, hTLR7, or hTLR8, in addition to the HEK-Null cell line carrying only the reporter gene, were stimulated with the indicated concentrations of PVP-179. […] PVP-179 activity is expressed as a percentage of NF-κB induced in the cells stimulated with TNF (positive control for each cell line). […] The supernatants were harvested after 20-24 hours and SEAP production (to assess NF-κB activity) was measured using QUANTIBlue assay. […]

hTLR2 = molecular target: T2, hTLR2 (Homo sapiens, UniProt O60603); test: HEK hTLR2 NF-κB SEAP reporter assay; conditions: even at higher concentrations
T2 construct: expressed in transfected cells; host or cells: HEK reporter cells
Experimental: as §1

hTLR7 = molecular target: T3, hTLR7 (Homo sapiens, UniProt Q9NYK1); test: HEK hTLR7 NF-κB SEAP reporter assay; conditions: even at higher concentrations
T3 construct: expressed in transfected cells; host or cells: HEK reporter cells
T3 sequence (Q9NYK1 27-1049): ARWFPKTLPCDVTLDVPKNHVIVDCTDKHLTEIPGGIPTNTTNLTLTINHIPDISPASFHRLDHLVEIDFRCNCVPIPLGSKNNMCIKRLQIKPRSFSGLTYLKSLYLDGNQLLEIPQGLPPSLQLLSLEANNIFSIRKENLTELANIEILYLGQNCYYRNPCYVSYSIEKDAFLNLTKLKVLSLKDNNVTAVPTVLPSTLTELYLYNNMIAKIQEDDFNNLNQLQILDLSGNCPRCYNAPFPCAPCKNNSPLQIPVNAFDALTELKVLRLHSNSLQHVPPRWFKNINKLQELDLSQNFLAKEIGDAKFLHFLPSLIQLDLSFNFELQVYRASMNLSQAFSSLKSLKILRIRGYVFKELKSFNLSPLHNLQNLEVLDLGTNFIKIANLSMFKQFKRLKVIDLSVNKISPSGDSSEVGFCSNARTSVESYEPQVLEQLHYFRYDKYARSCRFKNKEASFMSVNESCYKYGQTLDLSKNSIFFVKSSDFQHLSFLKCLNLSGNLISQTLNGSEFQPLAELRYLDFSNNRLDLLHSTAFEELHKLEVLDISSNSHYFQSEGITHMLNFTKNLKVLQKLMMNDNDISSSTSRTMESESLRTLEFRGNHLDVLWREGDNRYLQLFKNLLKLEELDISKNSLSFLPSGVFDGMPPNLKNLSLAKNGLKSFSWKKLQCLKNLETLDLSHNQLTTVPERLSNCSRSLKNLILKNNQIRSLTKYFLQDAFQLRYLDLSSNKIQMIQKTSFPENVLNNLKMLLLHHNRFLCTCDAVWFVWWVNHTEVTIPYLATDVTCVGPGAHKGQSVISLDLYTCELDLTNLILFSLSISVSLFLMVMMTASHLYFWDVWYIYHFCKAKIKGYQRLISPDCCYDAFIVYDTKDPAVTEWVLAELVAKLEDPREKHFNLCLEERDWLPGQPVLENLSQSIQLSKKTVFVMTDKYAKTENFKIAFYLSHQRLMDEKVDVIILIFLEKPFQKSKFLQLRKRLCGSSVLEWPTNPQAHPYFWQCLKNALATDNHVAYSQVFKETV
Experimental: as §1

T2 sequence (O60603 21-784): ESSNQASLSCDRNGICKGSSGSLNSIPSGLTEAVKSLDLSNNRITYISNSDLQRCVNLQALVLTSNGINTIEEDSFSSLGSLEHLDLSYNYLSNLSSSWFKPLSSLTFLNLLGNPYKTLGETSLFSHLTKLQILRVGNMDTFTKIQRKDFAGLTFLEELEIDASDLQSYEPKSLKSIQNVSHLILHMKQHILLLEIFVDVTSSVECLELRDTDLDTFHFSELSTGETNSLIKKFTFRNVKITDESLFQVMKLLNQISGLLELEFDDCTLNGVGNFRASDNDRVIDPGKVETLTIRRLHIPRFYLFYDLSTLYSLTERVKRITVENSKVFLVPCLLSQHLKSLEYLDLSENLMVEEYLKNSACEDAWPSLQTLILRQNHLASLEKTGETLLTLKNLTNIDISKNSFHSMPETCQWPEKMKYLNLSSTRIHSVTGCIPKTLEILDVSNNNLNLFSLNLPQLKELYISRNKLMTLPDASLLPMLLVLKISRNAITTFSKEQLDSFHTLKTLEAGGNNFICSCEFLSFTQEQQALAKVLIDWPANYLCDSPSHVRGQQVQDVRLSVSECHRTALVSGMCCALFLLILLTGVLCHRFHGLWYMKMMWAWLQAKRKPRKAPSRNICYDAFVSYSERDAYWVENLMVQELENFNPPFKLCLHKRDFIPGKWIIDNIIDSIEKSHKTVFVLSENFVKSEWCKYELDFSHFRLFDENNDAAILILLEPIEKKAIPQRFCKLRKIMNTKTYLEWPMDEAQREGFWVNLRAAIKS

CCCCn1c(/N=C/c2nc3ccccc3n2C)nc2ccccc21 [PVP-179]
NF-κB activity in HEK cells expressing hTLR8 (hTLR8; 20-24 hours): concentration-dependent activity
activity in HEK-hTLR8 cells after TLR8 inhibitor CUCPT-9a (hTLR8; CUCPT-9a 1 μM, PVP-179 at 33 μM or above): significantly blocked
NF-κB activity in HEK cells expressing hTLR2 (hTLR2): no activity was detected
NF-κB activity in HEK cells expressing hTLR7 (hTLR7): no activity was detected

From patent US20250041278A1, “TLR8 AGONIST FOR MODULATING IMMUNE RESPONSE” (The Children's Medical Center Corporation, priority 2021, published 2025)
